Experimental data: ChEMBL document CHEMBL1201862, “PubChem BioAssay data set” (2004)
Active and inactive are the calls of the source.

Tests used:
[1] = molecular target: SWI/SNF-related matrix-associated actin-dependent regulator of chromatin subfamily A member 2 (Homo sapiens, UniProt P51531); test: Luminescence-based cell-based high throughput dose response assay to identify activators of the function of SWI/SNF related, matrix associated, actin dependent regulator of chromatin, subfamily a, member 2 (SMARCA2, BRM).; type: functional
Sequence of SWI/SNF-related matrix-associated actin-dependent regulator of chromatin subfamily A member 2 (P51531 whole entry): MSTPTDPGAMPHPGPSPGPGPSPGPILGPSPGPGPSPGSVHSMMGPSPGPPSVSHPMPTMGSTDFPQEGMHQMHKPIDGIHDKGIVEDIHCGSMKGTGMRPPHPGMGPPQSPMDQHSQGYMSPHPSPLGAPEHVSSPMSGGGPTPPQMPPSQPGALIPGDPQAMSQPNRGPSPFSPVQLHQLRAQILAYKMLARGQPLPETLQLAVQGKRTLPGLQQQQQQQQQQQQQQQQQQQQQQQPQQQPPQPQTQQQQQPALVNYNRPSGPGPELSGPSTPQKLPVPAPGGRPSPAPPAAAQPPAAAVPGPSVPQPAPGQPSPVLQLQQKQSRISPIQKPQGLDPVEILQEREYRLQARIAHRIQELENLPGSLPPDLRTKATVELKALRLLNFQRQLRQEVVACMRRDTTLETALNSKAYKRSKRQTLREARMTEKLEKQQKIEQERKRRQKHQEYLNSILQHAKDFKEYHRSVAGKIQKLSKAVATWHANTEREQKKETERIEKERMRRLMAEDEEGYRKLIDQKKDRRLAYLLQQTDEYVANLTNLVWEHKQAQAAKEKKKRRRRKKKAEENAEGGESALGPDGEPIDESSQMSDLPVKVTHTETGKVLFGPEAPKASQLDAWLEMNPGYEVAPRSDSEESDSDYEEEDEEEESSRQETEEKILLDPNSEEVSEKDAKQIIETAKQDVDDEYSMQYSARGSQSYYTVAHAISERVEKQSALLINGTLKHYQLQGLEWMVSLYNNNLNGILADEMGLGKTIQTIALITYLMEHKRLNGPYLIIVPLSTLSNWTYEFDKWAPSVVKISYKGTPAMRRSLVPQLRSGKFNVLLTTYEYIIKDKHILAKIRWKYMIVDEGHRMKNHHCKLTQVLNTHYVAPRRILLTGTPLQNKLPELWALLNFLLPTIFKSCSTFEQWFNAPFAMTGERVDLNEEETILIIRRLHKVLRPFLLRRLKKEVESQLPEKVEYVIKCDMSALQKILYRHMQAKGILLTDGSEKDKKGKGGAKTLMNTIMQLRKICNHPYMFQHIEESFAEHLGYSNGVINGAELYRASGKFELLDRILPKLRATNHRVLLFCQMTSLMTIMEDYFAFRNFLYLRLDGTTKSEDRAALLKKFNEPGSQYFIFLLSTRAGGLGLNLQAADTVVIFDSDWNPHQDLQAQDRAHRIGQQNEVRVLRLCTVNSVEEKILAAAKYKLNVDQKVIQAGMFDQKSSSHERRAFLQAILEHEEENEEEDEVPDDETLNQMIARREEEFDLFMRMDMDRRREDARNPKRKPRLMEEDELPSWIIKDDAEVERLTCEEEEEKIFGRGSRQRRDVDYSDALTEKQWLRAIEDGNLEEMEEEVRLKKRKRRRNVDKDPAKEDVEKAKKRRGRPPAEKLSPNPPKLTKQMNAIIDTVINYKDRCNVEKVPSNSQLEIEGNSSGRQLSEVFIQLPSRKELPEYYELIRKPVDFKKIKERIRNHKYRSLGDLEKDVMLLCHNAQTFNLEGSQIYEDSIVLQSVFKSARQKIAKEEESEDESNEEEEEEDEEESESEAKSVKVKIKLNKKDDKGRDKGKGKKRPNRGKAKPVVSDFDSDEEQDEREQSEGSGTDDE

[2] = Counterscreen for activators of the function of SWI/SNF related, matrix associated, actin dependent regulator of chromatin, subfamily a, member 2 (SMARCA2, BRM): Luminescence-based cell-based high throughput dose response assay to identify non-selective compounds using the VP16 reporter assay.; type: functional
[3] = molecular target: T1, Sentrin-specific protease 7 (Homo sapiens, UniProt Q9BQF6); type: functional;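 further: Luminescence-based dose-response confirmation of ultra-high-throughput screening hits, measuring inhibition of SENP7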
T1 sequence (Q9BQF6 whole entry): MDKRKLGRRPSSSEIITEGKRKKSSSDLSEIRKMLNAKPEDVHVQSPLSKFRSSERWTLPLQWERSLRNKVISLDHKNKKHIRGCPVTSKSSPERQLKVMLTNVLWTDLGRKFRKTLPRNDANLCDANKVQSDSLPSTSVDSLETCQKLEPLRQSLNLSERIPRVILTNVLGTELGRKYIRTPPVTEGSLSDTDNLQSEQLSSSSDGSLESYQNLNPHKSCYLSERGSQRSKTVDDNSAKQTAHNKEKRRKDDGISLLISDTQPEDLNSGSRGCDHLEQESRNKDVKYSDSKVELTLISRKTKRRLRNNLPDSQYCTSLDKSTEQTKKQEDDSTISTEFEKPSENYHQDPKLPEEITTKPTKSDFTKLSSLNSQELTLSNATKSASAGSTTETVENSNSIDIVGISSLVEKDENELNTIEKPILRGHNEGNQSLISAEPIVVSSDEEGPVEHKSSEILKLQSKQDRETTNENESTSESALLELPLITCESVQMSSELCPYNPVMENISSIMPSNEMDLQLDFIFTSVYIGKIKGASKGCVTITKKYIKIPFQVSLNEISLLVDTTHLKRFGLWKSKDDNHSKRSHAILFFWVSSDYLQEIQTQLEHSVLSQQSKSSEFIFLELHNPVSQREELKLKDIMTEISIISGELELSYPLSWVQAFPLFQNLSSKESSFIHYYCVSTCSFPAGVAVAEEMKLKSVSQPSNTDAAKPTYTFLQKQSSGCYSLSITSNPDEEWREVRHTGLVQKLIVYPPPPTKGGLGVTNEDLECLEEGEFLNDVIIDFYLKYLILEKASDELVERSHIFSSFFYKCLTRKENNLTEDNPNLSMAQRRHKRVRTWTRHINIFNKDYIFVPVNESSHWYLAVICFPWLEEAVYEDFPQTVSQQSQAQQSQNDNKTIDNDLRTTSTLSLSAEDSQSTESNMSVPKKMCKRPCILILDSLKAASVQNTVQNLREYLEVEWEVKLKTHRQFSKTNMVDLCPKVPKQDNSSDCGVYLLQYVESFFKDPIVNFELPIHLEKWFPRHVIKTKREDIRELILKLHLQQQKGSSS

[4] = molecular target: T2, Sentrin-specific protease 8 (Homo sapiens, UniProt Q96LD8); type: functional;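 further: luminescence read-out of SENP8 inhibition, dose-response confirmation following an ultra-high-throughput screen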
T2 sequence (Q96LD8 whole entry): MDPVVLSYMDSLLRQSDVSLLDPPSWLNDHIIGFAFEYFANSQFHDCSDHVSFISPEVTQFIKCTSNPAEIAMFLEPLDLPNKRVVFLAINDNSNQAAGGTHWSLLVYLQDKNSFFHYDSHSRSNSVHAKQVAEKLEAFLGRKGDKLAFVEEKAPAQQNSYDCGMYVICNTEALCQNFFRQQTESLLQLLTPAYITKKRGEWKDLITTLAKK

Caspase-3 = molecular target: T3, Caspase-3 (Homo sapiens, UniProt P42574); type: functional;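 further: Dose-response selectivity test against caspase-3 for candidate inhibitors of sentrin-specific proteases (SENPs)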
T3 sequence (P42574 whole entry): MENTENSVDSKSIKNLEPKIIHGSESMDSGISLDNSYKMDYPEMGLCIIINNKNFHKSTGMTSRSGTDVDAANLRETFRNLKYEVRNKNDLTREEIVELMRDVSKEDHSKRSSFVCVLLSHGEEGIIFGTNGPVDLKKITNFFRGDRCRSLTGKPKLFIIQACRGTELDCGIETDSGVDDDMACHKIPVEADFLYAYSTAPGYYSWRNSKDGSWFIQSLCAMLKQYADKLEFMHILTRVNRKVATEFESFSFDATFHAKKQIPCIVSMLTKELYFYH

[5] = molecular target: T4, Sentrin-specific protease 6 (Homo sapiens, UniProt Q9GZR1); type: functional;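 further: Luminescence-based dose-response confirmatory assay of SENP6 inhibition, following up an ultra-high-throughput screen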
T4 sequence (Q9GZR1 whole entry): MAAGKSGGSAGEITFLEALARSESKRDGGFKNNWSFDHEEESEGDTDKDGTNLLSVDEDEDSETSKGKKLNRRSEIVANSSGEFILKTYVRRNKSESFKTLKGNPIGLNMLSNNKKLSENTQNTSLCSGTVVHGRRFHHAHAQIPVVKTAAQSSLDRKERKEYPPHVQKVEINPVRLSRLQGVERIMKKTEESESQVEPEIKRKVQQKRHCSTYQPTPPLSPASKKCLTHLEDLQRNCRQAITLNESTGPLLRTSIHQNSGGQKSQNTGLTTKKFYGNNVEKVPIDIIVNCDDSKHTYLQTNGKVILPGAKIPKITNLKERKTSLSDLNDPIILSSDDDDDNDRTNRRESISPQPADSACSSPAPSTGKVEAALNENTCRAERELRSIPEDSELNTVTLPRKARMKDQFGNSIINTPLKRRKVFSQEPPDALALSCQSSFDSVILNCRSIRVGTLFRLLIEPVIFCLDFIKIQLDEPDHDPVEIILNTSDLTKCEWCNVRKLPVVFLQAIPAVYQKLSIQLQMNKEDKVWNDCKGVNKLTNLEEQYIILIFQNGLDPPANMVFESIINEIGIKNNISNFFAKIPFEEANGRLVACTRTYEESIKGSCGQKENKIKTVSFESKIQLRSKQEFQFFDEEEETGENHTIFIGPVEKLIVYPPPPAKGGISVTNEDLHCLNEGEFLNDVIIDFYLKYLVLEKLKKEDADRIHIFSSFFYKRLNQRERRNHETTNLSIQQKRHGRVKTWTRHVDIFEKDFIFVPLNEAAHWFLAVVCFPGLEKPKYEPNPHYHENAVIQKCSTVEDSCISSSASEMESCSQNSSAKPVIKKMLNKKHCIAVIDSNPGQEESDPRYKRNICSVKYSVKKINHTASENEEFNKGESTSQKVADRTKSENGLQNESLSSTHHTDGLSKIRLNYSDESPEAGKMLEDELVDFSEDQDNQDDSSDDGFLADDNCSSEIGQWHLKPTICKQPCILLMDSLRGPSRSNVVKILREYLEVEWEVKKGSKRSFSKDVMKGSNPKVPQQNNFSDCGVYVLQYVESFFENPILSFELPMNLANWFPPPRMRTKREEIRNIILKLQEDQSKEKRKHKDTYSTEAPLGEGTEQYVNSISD

[6] = reduced cellular PGC1a acetyl-lysine signal – cell-based, cherry-picked samples, dose response (AID 720514); type: functional;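 further: potency may reflect raised or lowered acetylation signal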
[7] = A cytotoxicity screen of small molecule inhibitors of the PhoP region in Salmonella typhi identified in the primary screen. [Related pubchem assays: 1850, 1864, 1985 ]; type: functional
Nonstructural protein 1 = Nonstructural protein 1 (Influenza A virus, UniProt Q194T2); type: functional, Influenza A virus (A/California/07/2009(H1N1))
Sequence of Nonstructural protein 1 (Q194T2 whole entry): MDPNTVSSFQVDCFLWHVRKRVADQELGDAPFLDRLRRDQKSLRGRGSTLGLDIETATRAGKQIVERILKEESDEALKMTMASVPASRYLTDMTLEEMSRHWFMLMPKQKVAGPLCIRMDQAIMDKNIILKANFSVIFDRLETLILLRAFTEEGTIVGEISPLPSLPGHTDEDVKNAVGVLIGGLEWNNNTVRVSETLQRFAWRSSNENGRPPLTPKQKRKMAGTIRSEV

Paired box protein Pax-8 = Paired box protein Pax-8 (Homo sapiens, UniProt Q06710); test: PAX8 transcriptional activity inhibition in RMG-I – RMG-I cells, luciferase, cherry-pick, dose response (AID 687027); type: functional, cell-based;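 further: luciferase reporter driven by Pax8 target thyroperoxidase promoter measured by SteadyGlo luminescence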
Sequence of Paired box protein Pax-8 (Q06710 whole entry): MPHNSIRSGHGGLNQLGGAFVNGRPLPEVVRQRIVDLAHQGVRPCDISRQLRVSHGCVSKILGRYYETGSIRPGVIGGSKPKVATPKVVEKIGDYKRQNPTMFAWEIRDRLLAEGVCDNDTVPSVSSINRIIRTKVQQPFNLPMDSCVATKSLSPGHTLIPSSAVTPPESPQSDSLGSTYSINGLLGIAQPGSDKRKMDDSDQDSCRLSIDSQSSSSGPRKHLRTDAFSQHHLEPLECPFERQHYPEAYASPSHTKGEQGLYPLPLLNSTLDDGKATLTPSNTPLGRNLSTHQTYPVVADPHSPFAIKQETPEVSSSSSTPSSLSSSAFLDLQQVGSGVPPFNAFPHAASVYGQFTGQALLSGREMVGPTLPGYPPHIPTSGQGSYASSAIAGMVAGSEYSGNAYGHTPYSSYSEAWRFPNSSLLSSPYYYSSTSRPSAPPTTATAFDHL

[8] = Luminescence Cell-Based Dose Retest to Confirm Inhibitors of Cancer Stem Cells. [Related pubchem assays (depositor defined):AID2717, AID2721]; type: functional; settings: Homo sapiens
INS1 = test: INS-1E survival protection against cytokine death – cell-based, luminescence, retest, dose response (AID 449756); type: functional; settings: Rattus norvegicus;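 further: cell death triggered by IL-1 beta plus TNF-alpha plus IFN-gamma mixture; protective hits raise ATP signal compared with cytokine alone wells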
[9] = intracellular Trypanosoma cruzi inhibitors in host cells – cell-based, plate reader, cherry-pick samples, set 3, dose response (AID 651818); type: functional;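 further: compounds incubated with infected cells for about four days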
[10] = HIV-1 AD8 envelope cell-cell fusion blockers – cherry-pick, dose response (AID 652062); type: functional, cell-based;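 further: luciferase signal from cell-cell fusion driven by HIV-1 clade B AD8 Env; potency is for inhibitors of fusion seen as a drop in luminescence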
[11] = blockers of HIV-1 ZM109 envelope-driven cell-cell fusion – HeLa effector, CEM target cells, luciferase, cherry-pick, dose response (AID 652058); type: functional, cell-based;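 further: luciferase signal from HIV-1 Env mediated cell-cell fusion of effector and target cells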
[12] = blockers of HIV-1 envelope-mediated cell-cell fusion – cherry-pick, dose response (AID 652057); type: functional, cell-based
[13] = growth inhibition of yeast DHODH-expressing 3D7 parasites – SYBR Green, dry powder samples, dose response (AID 1159570); type: functional, cell-based;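 further: parasite growth measured after 72 hours of compound exposure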
[14] = toxicity to human HepG2 hepatoma cells – cell-based, plate reader, dry powder samples, cytotoxicity control, dose response (AID 1159569); type: functional;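 further: inhibitor potency with signal falling toward the positive control level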
[15] = Dd2 malaria parasite growth inhibition potency – SYBR Green, dry powder samples, dose response (AID 1159566); type: functional, cell-based;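 further: potency for growth inhibition with lower SYBR green DNA signal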
[16] = growth inhibition of PfATP4-mutant resistant parasites – NITD609-resistant line, SYBR Green, dry powder, dose response (AID 1159571); type: functional, cell-based;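 further: parasites synchronized at ring stage by sorbitol before testing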
[17] = P. falciparum Dd2 growth inhibitors, dose response, SYBR Green, cherry-picked samples (AID 1159567); type: functional, cell-based

COCn1c(COc2ccccc2)nc2ccccc21
EC50 [1]: > 91.2 µM (inactive) | EC50 [2]: > 91.2 µM (inactive)

COc1ccccc1CNC(=O)COc1ccccc1C(=O)c1cnn(-c2ccccc2)c1
IC50 [3]: 11.4 µM (active) | IC50 [4]: 24.3 µM (active) | IC50 (Caspase-3): 21.9 µM (active) | IC50 [5]: 26.1 µM (active)

CC1CCC[C@H](O)CCCCCc2cc(O)cc(O)c2C(=O)O1 (some centres undefined)
AC50 [6]: 35.9 µM (active) | EC50 [7]: > 50 µM (active)

CCCCNc1c([N+](=O)[O-])ccc2c1=NC1(CCCCC1)[N+]=2[O-]
IC50 (Nonstructural protein 1): 43.8 µM (active)

C=C1C(=O)OC2C1CCC(C)C1C=CC(=O)C12C (centres undefined)
EC50 [1]: > 91.2 µM (inactive) | EC50 [2]: > 91.2 µM (inactive)

COc1cc(Cl)c(NC2=CC(=O)C(=O)c3ccccc32)c(OC)c1
AC50 (Paired box protein Pax-8): 4.49 µM (active) | IC50 [3]: 15.6 µM (active) | IC50 [4]: 14.5 µM (active) | AC50 [8]: 1.15 µM (active) | IC50 (Caspase-3): 28.8 µM (active) | IC50 [5]: 9.11 µM (active) | AC50 (INS1): 3.33 µM (active)

C[C@@H]1CN([C@H](C)CO)C(=O)c2cccc(NC(=O)Nc3cccc4ccccc34)c2O[C@@H]1CN(C)Cc1ccc(C(F)(F)F)cc1
AC50 [9]: 6.48 µM (active)

C[C@H]1CN([C@@H](C)CO)C(=O)Cc2cc(NC(=O)Nc3ccc(C(F)(F)F)cc3)ccc2O[C@@H]1CN(C)CC1CCCCC1
AC50 [9]: 3.54 µM (active)

COc1ccc(S(=O)(=O)Nc2ccc3c(c2)C(=O)N([C@H](C)CO)C[C@H](C)[C@@H](CN(C)Cc2ccc(Cl)c(Cl)c2)OCCCC[C@@H](C)O3)cc1
AC50 (Paired box protein Pax-8): 10.2 µM (active) | AC50 [9]: 2.64 µM (active)

C[C@@H]1CN([C@H](C)CO)C(=O)Cc2cc(NC(=O)Nc3ccc4c(c3)OCO4)ccc2O[C@@H]1CN(C)Cc1ccc(C(=O)Nc2ccccc2N)cc1
AC50 [9]: 2.04 µM (active)

C[C@H](CO)N1C[C@H](C)[C@@H](CN(C)Cc2ccc(Cl)c(Cl)c2)Oc2c(NC(=O)Nc3cccc4ccccc34)cccc2C1=O
AC50 [9]: 9.77 µM (active)

COc1ccc(CNC(=O)N(C)C[C@@H]2OCc3ccccc3-c3c(n(C)c4ccccc34)C(=O)N([C@H](C)CO)C[C@@H]2C)cc1
AC50 [10]: < 0.235 µM (active) | AC50 [11]: < 0.235 µM (active) | AC50 [12]: < 0.235 µM (active)

Cc1[nH]n(-c2ccccc2)c(=O)c1N=Nc1ccc(F)cc1
IC50 (Nonstructural protein 1): 84.7 µM (active)

COc1ccc(-c2cnc3c(c2)C(=O)N([C@H](C)CO)C[C@@H](C)[C@@H](CN(C)C(=O)Nc2c(C)noc2C)O3)cc1
AC50 [6]: 12.2 µM (active)

CC(C)(C)[S@@+]([O-])N1Cc2cc(C(=O)NCCN3CCCCC3)nc(-c3cccc(-c4ccc(C#N)cc4)c3)c2[C@H]1CCO
AC50 [13]: 3.54 µM (active) | AC50 [14]: 63.2 µM (active) | AC50 [15]: 2.37 µM (active) | AC50 [16]: 2.9 µM (active) | AC50 [17]: 2.79 µM (active)

C[C@@H]1CN([C@@H](C)CO)S(=O)(=O)c2ccc(/C=C/c3ccccc3)cc2O[C@H]1CN(C)Cc1cccnc1
AC50 [13]: 1.6 µM (active) | AC50 [14]: 56.2 µM (active) | AC50 [15]: 1.63 µM (active) | AC50 [16]: 2.15 µM (active) | AC50 [17]: 1.93 µM (active)

COc1ccc(S(=O)(=O)N(C)C[C@@H]2Oc3cc(-c4ccccc4OC)ccc3S(=O)(=O)N([C@H](C)CO)C[C@H]2C)cc1
AC50 [13]: 0.894 µM (active) | AC50 [14]: > 100 µM (inactive) | AC50 [15]: 0.653 µM (active) | AC50 [16]: 0.766 µM (active) | AC50 [17]: 1.12 µM (active)

OC[C@@H]1CC[C@@H]2O[C@H](CCc3ccc(-c4ccccc4)cc3)[C@H](n3cc(-c4ccccc4)nn3)C[C@@H]2O1
AC50 [13]: 1.38 µM (active) | AC50 [14]: > 100 µM (inactive) | AC50 [15]: 0.555 µM (active) | AC50 [16]: 0.885 µM (active) | AC50 [17]: 1.34 µM (active)

C/C=C/c1ccc2c(c1)[C@H]1[C@H](CCN1C(=O)c1cccc(F)c1)[C@H](CO)N2
AC50 [13]: 1.46 µM (active) | AC50 [14]: > 100 µM (inactive) | AC50 [15]: 1.05 µM (active) | AC50 [16]: 1.64 µM (active) | AC50 [17]: 1.54 µM (active)
